Data: US9962369B2, “Methods and compositions for transdermal delivery” (SPRAYABLE HOLDINGS, INC., priority 2014, dated 2018)
One block for each molecule: values may come before it.

Assays:
[1] = Transdermal delivery of melatonin: plasma level of melatonin after applying composition to skin of a subject; details: control 2.0 ml of […] melatonin suspension in water, plasma level at 1, 2, 4, 8 hours
human skin tissue = experiment: Penetration rate of AI compound in AI-helper composition through human skin in vitro, modified Franz cells; format: in vitro ADME; details: for Skin penetration rate of Al compound: Al compound 0.5% w/v; for Skin penetration rate of Al compound / Skin penetration rate of AI compound: 25 °C; for Skin penetration rate of lipoic acid: alpha-lipoic acid 0.5% w/v, Tyrosine isopropyl ester•HA 6% w/v, 20° C.
Protocol: Penetration rate of AI compound in the AI-helper composition through human skin were measured in vitro by modified Franz cells. A Franz cell had two chambers: the top sample chamber and the bottom receiving chamber. The human skin tissue (450-500 μm thick) that separated the top and the receiving chambers was isolated from the anterior or posterior thigh areas.

[2] = 0.375 mL of 7% helper ester + 0.8% melatonin in water on skin of the back (20 cm×20 cm)
[3] = 0.60 mL of 7% helper ester + 0.5% melatonin in water on skin of the back (20 cm×20 cm)
[4] = 2-(Diethylamino)ethyl 2-(4-isobutylphenyl)propionate hydrochloride 6% w/v, water
[5] = D-Phenylalanine isopropyl ester hydrochloride 6% w/v, water
[6] = Dialkylaminoalkyl 2-(4-isobutylphenyl)propionate: None
[7] = L-Phenylalanine isopropyl ester hydrochloride 6% w/v, water
[8] = no isoleucine ester (None), AI compound 0.5 % w/v in water
[9] = no leucine ester (None), AI compound 0.5 % w/v in water
[10] = no tryptophan ester (None), AI compound 0.5 % w/v in water
[11] = with D-isoleucine isopropyl ester hydrochloride 6 % w/v in water, AI compound 0.5 % w/v
[12] = with D-leucine isopropyl ester hydrochloride 6 % w/v in water, AI compound 0.5 % w/v
[13] = with D-tryptophan isopropyl ester hydrochloride 6 % w/v in water, AI compound 0.5 % w/v
[14] = with L-isoleucine isopropyl ester hydrochloride 6 % w/v in water, AI compound 0.5 % w/v
[15] = with L-leucine isopropyl ester hydrochloride 6 % w/v in water, AI compound 0.5 % w/v
[16] = with L-tryptophan isopropyl ester hydrochloride 6 % w/v in water, AI compound 0.5 % w/v

Molecule: CCCCN(CCCC)CCOC(=O)c1ccccc1OC(C)=O [2-(Dibutylamino)ethyl 2-acetoxybenzoate]
- transdermal delivery of melatonin compared to control composition (A) [1, 2]: more efficient and effective transdermal delivery of melatonin

Molecule: CCN(CC)CCOC(=O)c1ccccc1OC(C)=O [2-(Diethylamino)ethyl 2-acetoxybenzoate]
- transdermal delivery of melatonin compared to control composition (A) [1, 2]: more efficient and effective transdermal delivery of melatonin

Molecule: CC(C)Cc1ccc(C(C)C(=O)OCCN(C)C)cc1 (centres unmarked) [2-(Dimethylamino)ethyl 2-(4-isobutylphenyl)propionate]
- transdermal delivery of melatonin compared to control composition (A) [1, 3]: more efficient and effective transdermal delivery of melatonin

Molecule: CCN(CC)CCCOC(=O)c1ccccc1OC(C)=O [3-(Diethylamino)propyl 2-acetoxybenzoate]
- transdermal delivery of melatonin compared to control composition (A) [1, 2]: more efficient and effective transdermal delivery of melatonin

Molecule: CCN(CC)CCCCOC(=O)C(C)c1ccc(CC(C)C)cc1 (centres unmarked) [4-(Diethylamino)butyl 2-(4-isobutylphenyl)propionate]
- transdermal delivery of melatonin compared to control composition (A) [1, 3]: more efficient and effective transdermal delivery of melatonin

Molecule: CCN(CC)CCCCCOC(=O)C(C)c1ccc(CC(C)C)cc1 (centres unmarked) [5-(Diethylamino)pentyl 2-(4-isobutylphenyl)propionate]
- transdermal delivery of melatonin compared to control composition (A) [1, 3]: more efficient and effective transdermal delivery of melatonin

Molecule: CC(=O)Oc1ccccc1C(=O)OCCCCCCN(C)C [6-(Dimethylamino)hexyl 2-acetoxybenzoate]
- transdermal delivery of melatonin compared to control composition (A) [1, 2]: more efficient and effective transdermal delivery of melatonin

Molecule: CCCCCCOC(=O)[C@@H](N)[C@@H](C)CC [Isoleucine hexyl ester]
- transdermal delivery of melatonin compared to control composition (A) [1, 3]: more efficient and effective transdermal delivery of melatonin

Molecule: CC[C@H](C)[C@H](N)C(=O)OC(C)C [Isoleucine isopropyl ester]
- transdermal delivery of melatonin compared to control composition (A) [1, 3]: more efficient and effective transdermal delivery of melatonin

Molecule: CCCCCCOC(=O)[C@@H](N)CC(C)C [Leucine hexyl ester]
- transdermal delivery of melatonin compared to control composition (A) [1, 3]: more efficient and effective transdermal delivery of melatonin

Molecule: CC(C)C[C@H](N)C(=O)OC(C)C [Leucine isopropyl ester]
- transdermal delivery of melatonin compared to control composition (A) [1, 3]: more efficient and effective transdermal delivery of melatonin

Molecule: COC(=O)[C@@H](N)CC(C)C [Leucine methyl ester]
- transdermal delivery of melatonin compared to control composition (A) [1, 3]: more efficient and effective transdermal delivery of melatonin

Molecule: CC(C)OC(=O)[C@@H](N)Cc1ccccc1 [Phenylalanine isopropyl ester]
- transdermal delivery of melatonin compared to control composition (A) [1, 3]: more efficient and effective transdermal delivery of melatonin

Molecule: CCCCCCCCOC(=O)[C@@H](N)Cc1ccccc1 [Phenylalanine octyl ester]
- transdermal delivery of melatonin compared to control composition (A) [1, 3]: more efficient and effective transdermal delivery of melatonin

Molecule: CCCCCCOC(=O)[C@@H]1CCCN1 [Proline hexyl ester]
- transdermal delivery of melatonin compared to control composition (A) [1, 3]: more efficient and effective transdermal delivery of melatonin

Molecule: CC(C)OC(=O)[C@@H]1CCCN1 [Proline isopropyl ester]
- transdermal delivery of melatonin compared to control composition (A) [1, 3]: more efficient and effective transdermal delivery of melatonin

Molecule: COC(=O)[C@@H]1CCCN1 [Proline methyl ester]
- transdermal delivery of melatonin compared to control composition (A) [1, 3]: more efficient and effective transdermal delivery of melatonin

- Skin penetration rate of Al compound (human skin tissue; [4]): 10.112 ± 2.322 μg/cm^2/h
- Skin penetration rate of Al compound (human skin tissue; [5]): 10.378 ± 2.155 μg/cm^2/h
- Skin penetration rate of Al compound (human skin tissue; [6]): 0.016 ± 0.012 μg/cm^2/h
- Skin penetration rate of Al compound (human skin tissue; [7]): 10.301 ± 2.022 μg/cm^2/h
- Skin penetration rate of Al compound (human skin tissue; Phenylalanine ester: None): 0.017 ± 0.015 μg/cm^2/h
- Skin penetration rate of AI compound (human skin tissue; [8]): 0.011 ± 0.008 μg/cm^2/h
- Skin penetration rate of AI compound (human skin tissue; [9]): 0.008 ± 0.010 μg/cm^2/h
- Skin penetration rate of AI compound (human skin tissue; [10]): 0.007 ± 0.013 μg/cm^2/h
- Skin penetration rate of AI compound (human skin tissue; [11]): 8.526 ± 2.271 μg/cm^2/h
- Skin penetration rate of AI compound (human skin tissue; [12]): 8.256 ± 2.078 μg/cm^2/h
- Skin penetration rate of AI compound (human skin tissue; [13]): 11.136 ± 2.385 μg/cm^2/h
- Skin penetration rate of AI compound (human skin tissue; [14]): 8.369 ± 2.102 μg/cm^2/h
- Skin penetration rate of AI compound (human skin tissue; [15]): 8.378 ± 2.152 μg/cm^2/h
- Skin penetration rate of AI compound (human skin tissue; [16]): 11.345 ± 2.612 μg/cm^2/h
Molecule: O=C1O[C@H]([C@@H](O)CO)C(O)=C1O [Vitamin C]

- Skin penetration rate of lipoic acid (human skin tissue; HA = 1/2H2SO4, water): 34.012 ± 2.685 μg/cm^2/h
- Skin penetration rate of lipoic acid (human skin tissue; HA = 1/3H3PO4, water): 33.25 ± 2.762 μg/cm^2/h
- Skin penetration rate of lipoic acid (human skin tissue; HA = 2/3H3PO4, water): 34.124 ± 2.912 μg/cm^2/h
- Skin penetration rate of lipoic acid (human skin tissue; HA = Acetic acid, water): 33.513 ± 2.319 μg/cm^2/h
- Skin penetration rate of lipoic acid (human skin tissue; HA = Benzoic acid, water): 32.913 ± 4.319 μg/cm^2/h
- Skin penetration rate of lipoic acid (human skin tissue; HA = Butyric acid, water): 33.452 ± 3.756 μg/cm^2/h
- Skin penetration rate of lipoic acid (human skin tissue; HA = Citric acid, water): 34.013 ± 2.569 μg/cm^2/h
- Skin penetration rate of lipoic acid (human skin tissue; HA = H2SO4, water): 33.567 ± 3.125 μg/cm^2/h
- Skin penetration rate of lipoic acid (human skin tissue; HA = HBr, water): 34.013 ± 3.219 μg/cm^2/h
- Skin penetration rate of lipoic acid (human skin tissue; HA = HCl, water): 33.613 ± 2.819 μg/cm^2/h
- Skin penetration rate of lipoic acid (human skin tissue; HA = HF, water): 33.613 ± 3.219 μg/cm^2/h
- Skin penetration rate of lipoic acid (human skin tissue; HA = HI, water): 33.572 ± 3.129 μg/cm^2/h
- Skin penetration rate of lipoic acid (human skin tissue; HA = Lactic acid, water): 32.987 ± 4.212 μg/cm^2/h
Molecule: O=C(O)CCCCC1CCSS1 (centres unmarked) [lipoic acid]

- Skin penetration rate of Al compound (human skin tissue; [4]): 18.347 ± 3.132 μg/cm^2/h
- Skin penetration rate of Al compound (human skin tissue; [5]): 20.015 ± 3.025 μg/cm^2/h
- Skin penetration rate of Al compound (human skin tissue; [6]): 0.021 ± 0.011 μg/cm^2/h
- Skin penetration rate of Al compound (human skin tissue; [7]): 20.177 ± 3.241 μg/cm^2/h
- Skin penetration rate of Al compound (human skin tissue; Phenylalanine ester: None): 0.026 ± 0.015 μg/cm^2/h
- Skin penetration rate of AI compound (human skin tissue; [8]): 0.015 ± 0.008 μg/cm^2/h
- Skin penetration rate of AI compound (human skin tissue; [9]): 0.015 ± 0.011 μg/cm^2/h
- Skin penetration rate of AI compound (human skin tissue; [10]): 0.018 ± 0.012 μg/cm^2/h
- Skin penetration rate of AI compound (human skin tissue; [11]): 16.515 ± 3.212 μg/cm^2/h
- Skin penetration rate of AI compound (human skin tissue; [12]): 16.315 ± 3.172 μg/cm^2/h
- Skin penetration rate of AI compound (human skin tissue; [13]): 21.715 ± 3.685 μg/cm^2/h
- Skin penetration rate of AI compound (human skin tissue; [14]): 16.656 ± 3.021 μg/cm^2/h
- Skin penetration rate of AI compound (human skin tissue; [15]): 16.357 ± 3.121 μg/cm^2/h
- Skin penetration rate of AI compound (human skin tissue; [16]): 20.977 ± 3.741 μg/cm^2/h
Molecule: Vitamin A

- Skin penetration rate of Al compound (human skin tissue; [4]): 8.127 ± 3.211 μg/cm^2/h
- Skin penetration rate of Al compound (human skin tissue; [5]): 8.156 ± 2.875 μg/cm^2/h
- Skin penetration rate of Al compound (human skin tissue; [6]): 0.016 ± 0.008 μg/cm^2/h
- Skin penetration rate of Al compound (human skin tissue; [7]): 8.236 ± 3.057 μg/cm^2/h
- Skin penetration rate of Al compound (human skin tissue; Phenylalanine ester: None): 0.012 ± 0.006 μg/cm^2/h
- Skin penetration rate of AI compound (human skin tissue; [8]): 0.0011 ± 0.006 μg/cm^2/h
- Skin penetration rate of AI compound (human skin tissue; [9]): 0.008 ± 0.009 μg/cm^2/h
- Skin penetration rate of AI compound (human skin tissue; [10]): 0.007 ± 0.011 μg/cm^2/h
- Skin penetration rate of AI compound (human skin tissue; [11]): 6.816 ± 2.372 μg/cm^2/h
- Skin penetration rate of AI compound (human skin tissue; [12]): 6.756 ± 2.325 μg/cm^2/h
- Skin penetration rate of AI compound (human skin tissue; [13]): 8.718 ± 3.125 μg/cm^2/h
- Skin penetration rate of AI compound (human skin tissue; [14]): 6.873 ± 3.061 μg/cm^2/h
- Skin penetration rate of AI compound (human skin tissue; [15]): 6.813 ± 3.111 μg/cm^2/h
- Skin penetration rate of AI compound (human skin tissue; [16]): 8.897 ± 3.211 μg/cm^2/h
Molecule: Vitamin B12

- Skin penetration rate of Al compound (human skin tissue; [4]): 19.783 ± 4.025 μg/cm^2/h
- Skin penetration rate of Al compound (human skin tissue; [5]): 21.363 ± 2.015 μg/cm^2/h
- Skin penetration rate of Al compound (human skin tissue; [6]): 0.012 ± 0.006 μg/cm^2/h
- Skin penetration rate of Al compound (human skin tissue; [7]): 21.357 ± 3.120 μg/cm^2/h
- Skin penetration rate of Al compound (human skin tissue; Phenylalanine ester: None): 0.016 ± 0.011 μg/cm^2/h
- Skin penetration rate of AI compound (human skin tissue; [8]): 0.016 ± 0.009 μg/cm^2/h
- Skin penetration rate of AI compound (human skin tissue; [9]): 0.012 ± 0.007 μg/cm^2/h
- Skin penetration rate of AI compound (human skin tissue; [10]): 0.008 ± 0.008 μg/cm^2/h
- Skin penetration rate of AI compound (human skin tissue; [11]): 19.321 ± 3.012 μg/cm^2/h
- Skin penetration rate of AI compound (human skin tissue; [12]): 19.723 ± 3.046 μg/cm^2/h
- Skin penetration rate of AI compound (human skin tissue; [13]): 22.783 ± 3.145 μg/cm^2/h
- Skin penetration rate of AI compound (human skin tissue; [14]): 19.412 ± 3.076 μg/cm^2/h
- Skin penetration rate of AI compound (human skin tissue; [15]): 19.611 ± 3.126 μg/cm^2/h
- Skin penetration rate of AI compound (human skin tissue; [16]): 23.657 ± 4.120 μg/cm^2/h
Molecule: Vitamin E
